Laboratory results: patent US20260297060A1, “COMPOUNDS FOR THE DEGRADATION OF MUTANT BRAF” (C4 THERAPEUTICS, INC., priority 2023, published 2026)
Where two headings read alike, the source gives them in different places.

Target: T1, BRAF V600E (Homo sapiens, UniProt P15056+Q96SW2, V600E)
T1 construct: knock-in of the HiBiT tag to the endogenous BRAF V600E locus; host or cells: A375.10 (A375 clonal line, CRISPR HiBiT knock-in at the endogenous BRAF V600E locus)
Assay: BRAF V600E HiBiT Degradation Assay
Assay type: cell-based
Settings: for DC50: A375.10 cells, BRAF V600E, 2 hours; for Emax: read-out: HiBiT-Degradation A375.10 BRAF 2 hours Emax, A375.10 cells, BRAF V600E, 2 hours, residual protein remaining
Outline: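 Endogenous HiBiT knock-in on BRAF V600E in A375 cells (clone A375.10); 11-point half-log series, top 10 μM, 2, 6 or 24 h at 37° C. Lytic HiBiT luminescence, background-subtracted, normalized to DMSO; 4-parameter fit gives DC50, Emax (residual protein) and IP (inflection point).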

[1] = inflection point, read-out: HiBiT-Degradation A375.10 BRAF 2 hours IP
[2] = read-out: HiBiT-Degradation A375.10 BRAF 2 hours DC50

T1 sequence (P15056 whole entry V600E): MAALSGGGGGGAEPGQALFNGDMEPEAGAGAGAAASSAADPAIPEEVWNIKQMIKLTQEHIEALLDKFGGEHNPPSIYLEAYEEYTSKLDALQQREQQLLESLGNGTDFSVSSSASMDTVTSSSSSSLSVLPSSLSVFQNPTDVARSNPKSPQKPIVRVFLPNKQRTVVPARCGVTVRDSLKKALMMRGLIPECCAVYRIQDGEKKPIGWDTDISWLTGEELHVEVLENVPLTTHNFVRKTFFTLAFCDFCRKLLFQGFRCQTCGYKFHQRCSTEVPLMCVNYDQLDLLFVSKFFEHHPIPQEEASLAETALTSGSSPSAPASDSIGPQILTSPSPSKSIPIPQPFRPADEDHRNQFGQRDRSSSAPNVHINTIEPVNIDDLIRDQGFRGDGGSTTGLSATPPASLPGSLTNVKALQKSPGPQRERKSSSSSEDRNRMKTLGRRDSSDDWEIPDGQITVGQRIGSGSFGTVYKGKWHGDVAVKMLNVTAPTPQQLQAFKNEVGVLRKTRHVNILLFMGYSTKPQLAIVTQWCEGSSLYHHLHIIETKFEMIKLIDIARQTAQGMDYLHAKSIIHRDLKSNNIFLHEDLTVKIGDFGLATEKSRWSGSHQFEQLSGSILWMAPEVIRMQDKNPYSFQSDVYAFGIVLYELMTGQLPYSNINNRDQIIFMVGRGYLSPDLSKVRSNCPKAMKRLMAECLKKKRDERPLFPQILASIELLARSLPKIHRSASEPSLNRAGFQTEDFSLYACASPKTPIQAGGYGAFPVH
T1 sequence (Q96SW2 whole entry): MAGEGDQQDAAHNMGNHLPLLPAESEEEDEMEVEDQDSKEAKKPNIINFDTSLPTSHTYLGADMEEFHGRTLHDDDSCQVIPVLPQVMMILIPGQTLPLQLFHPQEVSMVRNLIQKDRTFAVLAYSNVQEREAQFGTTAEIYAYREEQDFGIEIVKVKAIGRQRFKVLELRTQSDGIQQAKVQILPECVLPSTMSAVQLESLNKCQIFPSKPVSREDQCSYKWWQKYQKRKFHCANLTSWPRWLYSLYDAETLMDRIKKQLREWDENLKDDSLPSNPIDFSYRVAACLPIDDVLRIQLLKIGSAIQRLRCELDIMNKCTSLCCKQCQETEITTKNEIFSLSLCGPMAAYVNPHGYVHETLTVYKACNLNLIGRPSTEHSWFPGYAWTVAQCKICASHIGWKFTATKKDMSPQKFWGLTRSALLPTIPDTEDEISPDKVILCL
T1 sequence (Q16531 whole entry partner): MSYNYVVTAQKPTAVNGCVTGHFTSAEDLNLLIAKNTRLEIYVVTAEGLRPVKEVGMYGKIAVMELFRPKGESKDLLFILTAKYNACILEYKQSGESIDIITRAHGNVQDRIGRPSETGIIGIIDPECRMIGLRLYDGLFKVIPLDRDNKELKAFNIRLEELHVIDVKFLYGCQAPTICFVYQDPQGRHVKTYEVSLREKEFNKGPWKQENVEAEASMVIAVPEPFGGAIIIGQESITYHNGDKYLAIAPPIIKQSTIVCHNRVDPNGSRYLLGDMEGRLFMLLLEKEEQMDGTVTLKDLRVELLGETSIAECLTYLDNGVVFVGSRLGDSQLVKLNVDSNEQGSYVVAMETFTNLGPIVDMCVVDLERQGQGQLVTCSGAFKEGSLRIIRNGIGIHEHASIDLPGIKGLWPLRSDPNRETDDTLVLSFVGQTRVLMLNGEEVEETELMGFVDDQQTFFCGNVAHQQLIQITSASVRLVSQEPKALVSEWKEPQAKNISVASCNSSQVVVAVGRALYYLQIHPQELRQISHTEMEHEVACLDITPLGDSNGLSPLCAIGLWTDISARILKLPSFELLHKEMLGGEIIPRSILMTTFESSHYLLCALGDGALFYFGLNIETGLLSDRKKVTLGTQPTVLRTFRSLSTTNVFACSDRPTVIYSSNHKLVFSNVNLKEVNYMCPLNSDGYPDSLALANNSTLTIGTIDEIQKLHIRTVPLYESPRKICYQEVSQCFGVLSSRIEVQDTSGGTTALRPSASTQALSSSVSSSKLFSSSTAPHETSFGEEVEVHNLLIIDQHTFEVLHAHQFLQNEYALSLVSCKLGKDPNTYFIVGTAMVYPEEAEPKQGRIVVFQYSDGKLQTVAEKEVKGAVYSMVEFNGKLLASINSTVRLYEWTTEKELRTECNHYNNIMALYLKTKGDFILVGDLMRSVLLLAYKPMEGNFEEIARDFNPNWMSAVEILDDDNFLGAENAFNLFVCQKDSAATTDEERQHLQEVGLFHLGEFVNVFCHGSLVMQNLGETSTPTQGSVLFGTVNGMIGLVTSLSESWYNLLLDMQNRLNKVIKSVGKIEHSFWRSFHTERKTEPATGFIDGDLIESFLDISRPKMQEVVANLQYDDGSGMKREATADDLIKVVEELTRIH

CC(C)S(=O)(=O)Nc1ccc(F)c(Oc2ccc3ncn(C4CC5(CCN(C6CC7(C6)CN(c6cc8c(cc6F)c(N6CCC(=O)NC6=O)nn8C)C7)CC5)C4)c(=O)c3c2)c1C#N (stereo not drawn) [Compound 273, N-[2-cyano-3-[3-[7-[2-[3-(2,4-dioxohexahydropyrimidin-1-yl)-5-fluoro-1-methyl-indazol-6-yl]-2-azaspiro[3.3]heptan-6-yl]-7-azaspiro[3.5]nonan-2-yl]-4-oxo-quinazolin-6-yl]oxy-4-fluoro-phenyl]propane-2-sulfonamide]
DC50 [1]: < 1000 nM
DC50 [2]: < 1000 nM
Emax: < 50%

Cn1nc(N2CCC(=O)NC2=O)c2cc(F)c(N3CC4(CC(N5CCC6(CC5)CC(n5cnc7ccc(Oc8c(F)ccc(NS(=O)(=O)N9C[C@H]%10C[C@H]%10C9)c8C#N)cc7c5=O)C6)C4)C3)cc21 (stereo partly drawn) [Compound 277, (1R,5S)-N-[2-cyano-3-[3-[7-[2-[3-(2,4-dioxohexahydropyrimidin-1-yl)-5-fluoro-1-methyl-indazol-6-yl]-2-azaspiro[3.3]heptan-6-yl]-7-azaspiro[3.5]nonan-2-yl]-4-oxo-quinazolin-6-yl]oxy-4-fluoro-phenyl]-3-azabicyclo[3.1.0]hexane-3-sulfonamide]
DC50 [1]: < 1000 nM
DC50 [2]: < 1000 nM
Emax: < 50%
